Data reported in PubChem BioAssay (NCI).
Values joined by “and” are separate entries in the source; they are usually repeats but may differ in a detail not shown here. Identical values can stand only once.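 Compound exposure: 48 hours, 5 concentrations, 96-well plates. GI50: concentration for 50% inhibition of growth. TGI denotes the concentration required for complete inhibition of growth.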

How the values were obtained:
Assay in all cases: DTP human tumour cell line panel, 48 h
HCT-116 colon = test system: HCT-116 colon
BT-549 breast = test system: BT-549 breast
786-0 renal = test system: 786-0 renal
SK-OV-3 ovarian = test system: SK-OV-3 ovarian
SR leukemia = test system: SR leukemia
A498 renal = test system: A498 renal
TK-10 renal = test system: TK-10 renal
UO-31 renal = test system: UO-31 renal
OVCAR-8 ovarian = test system: OVCAR-8 ovarian
HCC-2998 colon = test system: HCC-2998 colon
HL-60(TB) leukemia = test system: HL-60(TB) leukemia
SW-620 colon = test system: SW-620 colon
CAKI-1 renal = test system: CAKI-1 renal

Compound	TGI (HCT-116 colon)	TGI (BT-549 breast)	TGI (786-0 renal)	TGI (SK-OV-3 ovarian)	TGI (SR leukemia)	TGI (A498 renal)	TGI (TK-10 renal)	TGI (UO-31 renal)	TGI (OVCAR-8 ovarian)	TGI (HCC-2998 colon)	TGI (HL-60(TB) leukemia)	TGI (SW-620 colon)	TGI (CAKI-1 renal)	GI50 (HCT-116 colon)	GI50 (A498 renal)	GI50 (UO-31 renal)	GI50 (OVCAR-8 ovarian)	GI50 (SW-620 colon)	GI50 (SK-OV-3 ovarian)	GI50 (HL-60(TB) leukemia)
CC(C)(C)c1ccc(O)c(Br)c1	> 100 µM	> 100 µM	> 100 µM	> 100 µM	> 100 µM	> 100 µM	> 100 µM	> 100 µM	> 100 µM	> 100 µM	> 100 µM	> 100 µM								
Clc1ccc(NCc2nnc(COc3ccc(OCc4nnc(CNc5ccc(Cl)cc5)o4)c(Cl)c3)o2)cc1	> 100 µM	> 100 µM	> 100 µM		13.6 µM	> 100 µM	> 100 µM	> 100 µM	> 100 µM	> 100 µM	27 µM	> 100 µM	> 100 µM							
CC(C)(C)OC(=O)N1C[C@H](CC(=O)OCc2ccccc2)C[C@H]1C(=O)OCC(Cl)(Cl)Cl	> 50 µM	> 50 µM	> 50 µM	> 50 µM	15.7 µM	25.9 µM	> 50 µM	11 µM	> 50 µM	45.3 µM	> 50 µM	> 50 µM	> 50 µM							
COC1OC(C(=O)CP(=O)(OC)OC)C(OCc2ccccc2)C(OCc2ccccc2)C1OCc1ccccc1 (stereo not drawn)	29 µM and 30.2 µM	32 µM and 33.8 µM	31.3 µM and 31.4 µM	32.7 µM and 32.6 µM	39.1 µM and 65.7 µM	27.1 µM	30.9 µM and 33.9 µM	30.9 µM and 23.5 µM	36.8 µM and 44.5 µM	31.5 µM and 29.7 µM	59.4 µM and 47 µM	> 100 µM and 58 µM	36 µM and 36.7 µM							
O=C(CSc1nc2ccc(Cl)cc2c(=O)n1-c1ccccc1)N=Nc1c(O)[nH]c2ccc(F)cc12	3.28 µM	4.11 µM	4.45 µM	22.3 µM		9.8 µM	15.5 µM	0.411 µM	3.33 µM	8.73 µM	7.25 µM	5.43 µM	11.6 µM							
CCOC(=O)C(=CNC(Cc1c[nH]c2ccccc12)C(=O)OC)C(=O)OCC (stereo not drawn)				> 100 µM		> 100 µM	> 100 µM	> 100 µM	> 100 µM		> 100 µM	> 100 µM	> 100 µM							
CCN(CC)/[N+]([O-])=N/OC	> 100 µM			> 100 µM	> 100 µM	> 100 µM	> 100 µM	> 100 µM	> 100 µM	> 100 µM	> 100 µM	> 100 µM								
C=C1CCCC(C)(C)[C@@H]1CC/C(C)=C/Cn1c2cccc(=O)c-2nc2ccccc21	6.62 µM and 2.73 µM			10.7 µM		70.2 µM and 14.1 µM				4.53 µM	0.354 µM		10.7 µM	2.55 µM	7.76 µM	3.91 µM	4.28 µM	5.87 µM		
O=C(N/N=C\c1ccc([N+](=O)[O-])cc1)Nc1ccccc1	> 100 µM	> 100 µM		> 100 µM	> 100 µM	> 100 µM	> 100 µM	> 100 µM	> 100 µM		> 100 µM	> 100 µM	> 100 µM							
COc1ccc(Cc2nc3cc(Cl)ccc3o2)cc1	> 100 µM	64.4 µM	> 100 µM	> 100 µM	> 100 µM		> 100 µM	> 100 µM	> 100 µM	56.8 µM	> 100 µM	> 100 µM	> 100 µM							
Cn1c2c(c3c(=O)[nH]ncc31)CCc1ccccc1-2	64.2 µM	78.2 µM	73.4 µM	> 100 µM	55.2 µM	45.7 µM	45.3 µM	59.1 µM	> 100 µM		60.6 µM	> 100 µM	> 100 µM							
NC(N)=NS(=O)(=O)c1ccc(Nc2c3ccccc3nc3c(C(=O)N4CCN(CCO)CC4)ccc(Cl)c23)cc1	> 100 µM			> 100 µM		> 100 µM	> 100 µM	> 100 µM	> 100 µM	> 100 µM	> 100 µM		> 100 µM							
Cc1cc(O)c2c(c1O)C(=O)c1c(O)ccc(O)c1C2=O	> 100 µM	> 100 µM	> 100 µM	> 100 µM	> 100 µM	> 100 µM	> 100 µM		> 100 µM	> 100 µM	> 100 µM	> 100 µM	> 100 µM							
Fc1cc(C2=C[C@H](c3ccc4c(c3)OCO4)NC(=S)N2)c(Cl)cc1Cl	> 100 µM	> 100 µM	> 100 µM	> 100 µM	> 100 µM	79 µM	96.4 µM	> 100 µM	> 100 µM	75.4 µM	0.23 µM	> 100 µM	> 100 µM							
O=CC(O)C(O)C(O)COc1cc(CO)cc2c1C(=O)c1ccccc1C2=O (stereo not drawn)	> 100 µM		> 100 µM	> 100 µM	> 100 µM	> 100 µM	> 100 µM	> 100 µM	> 100 µM	> 100 µM	> 100 µM	> 100 µM	> 100 µM							
CCCCCCOC(=O)C(N)Cc1ccc(OC)cc1 (stereo not drawn)	> 100 µM	> 100 µM	> 100 µM	> 100 µM	> 100 µM		> 100 µM	> 100 µM	> 100 µM		> 100 µM	> 100 µM	> 100 µM							

Compound	TGI (HCT-116 colon)	TGI (BT-549 breast)	TGI (786-0 renal)	TGI (SK-OV-3 ovarian)	TGI (SR leukemia)	TGI (A498 renal)	TGI (TK-10 renal)	TGI (UO-31 renal)	TGI (OVCAR-8 ovarian)	TGI (HCC-2998 colon)	TGI (HL-60(TB) leukemia)	TGI (SW-620 colon)	TGI (CAKI-1 renal)	GI50 (HCT-116 colon)	GI50 (A498 renal)	GI50 (UO-31 renal)	GI50 (OVCAR-8 ovarian)	GI50 (SW-620 colon)	GI50 (SK-OV-3 ovarian)	GI50 (HL-60(TB) leukemia)
CC(C)(C)OC(=O)N1C(C2=COc3ccccc3O2)=COc2cccnc21	4.98 µM	5.42 µM	3.66 µM	3.99 µM	5.9 µM	3.32 µM	7.72 µM	3.1 µM	4.06 µM	3.16 µM		4.56 µM	6.82 µM							
O=c1oc2c(ccc3occc32)c(N2CCCCC2)c1-c1ccccc1	> 100 µM			> 100 µM		> 100 µM		> 30.3 µM	> 100 µM	> 100 µM	80.1 µM	> 100 µM							> 100 µM	
CC(Br)C(=O)c1ccc2cc(Br)c3ccccc3c2c1 (stereo not drawn)	29.9 µM	28.7 µM	11.7 µM	30.8 µM	21.2 µM	33.1 µM	33.1 µM	32 µM	27.5 µM	29.6 µM	37.5 µM	26.3 µM	30.1 µM							
COc1cc(S(=O)(=O)N/N=C/C=C/c2ccccc2)c(OC)cc1NC(C)=O	> 100 µM	> 100 µM	> 100 µM	> 100 µM	> 100 µM	> 100 µM		> 100 µM	> 100 µM		> 100 µM	> 100 µM	> 100 µM							
NCCCCN	> 100 µM	> 100 µM	> 100 µM	> 100 µM	> 100 µM	> 100 µM	> 100 µM	> 100 µM	> 100 µM	> 100 µM	> 100 µM	> 100 µM	30.2 µM							
NC(CCc1ccccc1)(C(=O)O)c1ccccc1 (stereo not drawn)	> 100 µM	> 100 µM	> 100 µM		> 100 µM	> 100 µM	> 100 µM	> 100 µM	> 100 µM	> 100 µM		> 100 µM	> 100 µM							
CCOC(=O)c1c(Nc2ccccc2)sc2cccnc12	46.7 µM	58.8 µM	48.3 µM	> 89.9 µM	59.6 µM	26.2 µM	86.1 µM	43.4 µM	64 µM	77.8 µM	51.3 µM	> 100 µM	98.4 µM							
CCOC(=O)C(Cc1ccc(OC(=O)c2ccc(OC)cc2OC)cc1)NC(=O)C(F)(F)F (stereo not drawn)	> 100 µM	> 100 µM	93.6 µM	> 100 µM		31.6 µM	42.7 µM	34.5 µM	51 µM	31.2 µM	51.1 µM	> 100 µM	75.8 µM							
COc1cccc(/C=N/[N-]C(N)=O)c1[O-].[Cu+2].[OH3+].c1cnc2c(c1)ccc1cccnc12	27.8 µM		20.2 µM	25.2 µM	> 100 µM	21.8 µM	30.4 µM	38.2 µM	31.9 µM	49.1 µM	48.7 µM	> 100 µM	33.9 µM							20 µM
O=S1c2ccccc2N=C(c2ccc3ccccc3c2)CC1c1ccccc1 (stereo not drawn)	33.6 µM			92.6 µM	63.8 µM	35.9 µM	68.7 µM	32.4 µM	30 µM	36.6 µM	58.1 µM	29.3 µM	> 100 µM							
CCOc1cc(NC(C)=O)ccc1C(=O)N/N=C/c1ccco1	> 100 µM	> 100 µM	> 100 µM	> 100 µM	31.3 µM	> 100 µM	> 100 µM		> 100 µM	> 100 µM	> 100 µM	> 100 µM	> 100 µM							
CCOC(=O)C(C)OC(=O)c1ccc(C)cc1 (stereo not drawn)	> 100 µM			> 100 µM	> 100 µM	> 100 µM	> 100 µM	> 100 µM	> 100 µM	> 100 µM	> 100 µM	> 100 µM								
CN(C)c1ccc(/C=C2\C[C@H]3[C@@H]4CCC5=CC(=O)CC[C@]5(C)[C@H]4CC[C@]3(C)C2=O)cc1	> 100 µM	> 100 µM	> 100 µM	> 100 µM	> 100 µM	> 100 µM	> 100 µM	> 100 µM	> 100 µM		> 100 µM	> 100 µM	> 100 µM							
COC(=O)c1c(O)ccc2c1c1c(n2Cc2ccccn2)C(=O)c2ccccc2C1	> 100 µM	> 100 µM	> 100 µM	> 100 µM	> 100 µM	> 100 µM	> 100 µM	> 100 µM	> 100 µM		> 100 µM	> 100 µM	> 100 µM							
O=C(COC(c1ccc(F)cc1)c1ccc(F)cc1)N1CCN(CCCc2ccccc2)CC1	10.5 µM	13.7 µM	14.1 µM	21.5 µM	18.6 µM	12.6 µM	17.8 µM	3.56 µM	14.6 µM	13 µM	14.1 µM	> 100 µM	4.15 µM							
CC(C)c1ccc2c(c1)[C@@]1(C)CC[C@H](C)C(C)(C)C1CC2 (stereo partly drawn)	34.9 µM	35 µM	33.4 µM	33.9 µM	67.5 µM	34.9 µM	33.1 µM	> 100 µM	33.1 µM	41.3 µM	63.6 µM	> 100 µM	50.6 µM							
